From patent US11000033B2, “Ketone or oxime compound, and herbicide” (NISSAN CHEMICAL CORPORATION, priority 2014, dated 2021)

What was measured:
Format in all cases: in vivo
Stellaria media = test: Test Example 5: herbicidal effect by foliage application, plastic box (symbol P); settings: 320 g/ha, 3 weeks after application
In short: (§1)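 Post-emergence spray; diluvial soil (sterilized), ~1.5 cm seed cover; greenhouse 25–30° C; 14-day-old plants; water-diluted emulsion at predetermined dose; visual score at 3 wk post-treatment.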

[1] = test system: Echinochloa crus-galli var. crus-galli; test: Test Example 4: herbicidal effect by soil treatment (symbol H); settings: for H (Echinochloa crus-galli var. crus-galli) herbicidal effect grade: application herbicide amount 320 g/ha; for H: Echinochloa crus-galli var. crus-galli, herbicidal effect grade: 320 g/ha
In short: (§2)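 Seeds were sown in sterilized diluvial soil, covered with about 1.5 cm of soil, and the soil surface was sprayed with a water-diluted emulsion of the compound at a predetermined rate. Plants grew in a greenhouse at 25° C. to 30° C.; effects were scored visually 3 weeks after application.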

rice plant = test: Test Example 5: effect on crop by foliage application, plastic box (symbol b); settings: 320 g/ha, 3 weeks after application
In short: (§3)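 Foliage-application test plants come from spot sowing in sterilized diluvial soil under a soil layer of about 1.5 cm, grown at 25° C. to 30° C. in a greenhouse.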

beet = test: Test Example 5: effect on crop by foliage application, plastic box (symbol f); settings: 320 g/ha, 3 weeks after application
In short: as §3

Cyperus difformis = test: Test Example 3: herbicidal effect by foliage application, Wagner pot (symbol E); settings: application herbicide amount 320 g/ha
In short: (§4)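 In a shallow-flooded alluvial soil system held at 25–30 °C, plants including rice grew for 14 days and were then sprayed over the foliage with emulsion diluted to a fixed herbicide amount. Visual rating followed at 3 weeks.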

Apera spica-venti [2] = test: Test Example 4: herbicidal effect by soil treatment (symbol L); settings: for L (Apera spica-venti) herbicidal effect grade: application herbicide amount 320 g/ha; for L: Apera spica-venti, herbicidal effect grade: 320 g/ha
In short: as §2

Apera spica-venti [3] = test: Test Example 5: herbicidal effect by foliage application, plastic box (symbol L); settings: 320 g/ha, 3 weeks after application
In short: as §1

[4] = test system: Echinochloa crus-galli var. crus-galli; test: Test Example 3: herbicidal effect by foliage application, Wagner pot (symbol H); settings: application herbicide amount 320 g/ha
In short: as §4

[5] = test system: Echinochloa oryzacola Vasing.; test: Test Example 2: herbicidal activity, application during weed generation in submerged conditions (symbol A); settings: Table 23; application herbicide amount 320 g/ha; grade 0-5 by criteria of Test Example 1
In short: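 Compound was applied as a water-diluted emulsion into the standing water of flooded pots (4 cm) once co-sown weeds reached one to two leaves. Greenhouse temperature was 25° C. to 30° C., soil was alluvial, and each species was rated visually after 3 weeks.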

Setaria viridis = test: Test Example 5: herbicidal effect by foliage application, plastic box (symbol G); settings: 320 g/ha, 3 weeks after application
In short: as §1

soybean = test: Test Example 5: effect on crop by foliage application, plastic box (symbol d); settings: 320 g/ha, 3 weeks after application
In short: as §3

[6] = test system: Echinochloa oryzacola Vasing.; test: Test Example 1: herbicidal activity, application before weed generation in submerged conditions (symbol A); settings: application herbicide amount 320 g/ha
In short: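 Pre-emergence, paddy conditions: emulsifiable formulation diluted in water, dosed onto floodwater (4 cm depth) on sowing day. Alluvial soil; weeds sown mixed; rice transplanted at 2.5-leaf stage. Greenhouse 25–30 °C, 3 wk. Score 0–5 (5 = ≥90% kill, 0 = ≤5%).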

Amaranthus retroflexus = test: Test Example 4: herbicidal effect by soil treatment (symbol N); settings: for N (Amaranthus retroflexus) herbicidal effect grade: application herbicide amount 320 g/ha; for N: Amaranthus retroflexus, herbicidal effect grade: 320 g/ha
In short: as §2

CC(CC1CC(O)=C(c2c(C)cc(C)cc2C)C1=O)=NO (stereo not drawn) [1-058]
P: Stellaria media, herbicidal effect grade (Stellaria media): 0 (Herbicidal ratio of 5% or lower (almost no effect))
H (Echinochloa crus-galli var. crus-galli) herbicidal effect grade [1]: 5 (Herbicidal ratio of 90% or more (almost completely withered))
b: directly sowed rice plant, effect on crop grade (rice plant): 5 (Herbicidal ratio of 90% or more (almost completely withered))
f: beet, effect on crop grade (beet): 0 (Herbicidal ratio of 5% or lower (almost no effect))
herbicidal effect on E, grade 0-5 (Cyperus difformis): 5 (Herbicidal ratio of 90% or more (almost completely withered))
L (Apera spica-venti) herbicidal effect grade (Apera spica-venti [2]): 4 (Herbicidal ratio of 70% or higher and lower than 90%)
L: Apera spica-venti, herbicidal effect grade (Apera spica-venti [3]): 5 (Herbicidal ratio of 90% or more (almost completely withered))
herbicidal effect on H (Echinochloa crus-galli var. crus-galli), grade 0-5 [4]: 5 (Herbicidal ratio of 90% or more (almost completely withered))
Herbicidal effect grade, A: Echinochloa oryzacola Vasing. [5]: 5 (Herbicidal ratio of 90% or more (almost completely withered))
G: Setaria viridis, herbicidal effect grade (Setaria viridis): 5 (Herbicidal ratio of 90% or more (almost completely withered))
d: soybean, effect on crop grade (soybean): 3 (Herbicidal ratio of 40% or higher and lower than 70%)
Herbicidal effect grade, A: Echinochloa oryzacola Vasing. [6]: 5 (Herbicidal ratio of 90% or more (almost completely withered))
N (Amaranthus retroflexus) herbicidal effect grade (Amaranthus retroflexus): 2 (Herbicidal ratio of 20% or higher and lower than 40%)

CON=C(C)CC1CC(OC(=O)COc2ccc(I)cc2)=C(c2c(C)cc(C)cc2C)C1=O (stereo not drawn) [1-082]
P: Stellaria media, herbicidal effect (criteria 0-5) (Stellaria media): 0 (Herbicidal ratio of 5% or lower (almost no effect))
H: Echinochloa crus-galli var. crus-galli, herbicidal effect grade [1]: 5 (Herbicidal ratio of 90% or more (almost completely withered))
b: directly sowed rice plant, effect on crop (criteria 0-5) (rice plant): 5 (Herbicidal ratio of 90% or more (almost completely withered))
f: beet, effect on crop (criteria 0-5) (beet): 0 (Herbicidal ratio of 5% or lower (almost no effect))
herbicidal effect on E, grade 0-5 (Cyperus difformis): 5 (Herbicidal ratio of 90% or more (almost completely withered))
L: Apera spica-venti, herbicidal effect grade (Apera spica-venti [2]): 5 (Herbicidal ratio of 90% or more (almost completely withered))
L: Apera spica-venti, herbicidal effect (criteria 0-5) (Apera spica-venti [3]): 5 (Herbicidal ratio of 90% or more (almost completely withered))
herbicidal effect on H (Echinochloa crus-galli var. crus-galli), grade 0-5 [4]: 5 (Herbicidal ratio of 90% or more (almost completely withered))
Herbicidal effect grade, A: Echinochloa oryzacola Vasing. [5]: 5 (Herbicidal ratio of 90% or more (almost completely withered))
G: Setaria viridis, herbicidal effect (criteria 0-5) (Setaria viridis): 5 (Herbicidal ratio of 90% or more (almost completely withered))
d: soybean, effect on crop (criteria 0-5) (soybean): 4 (Herbicidal ratio of 70% or higher and lower than 90%)
Herbicidal effect grade, A: Echinochloa oryzacola Vasing. [6]: 5 (Herbicidal ratio of 90% or more (almost completely withered))
N: Amaranthus retroflexus, herbicidal effect grade (Amaranthus retroflexus): 5 (Herbicidal ratio of 90% or more (almost completely withered))

CON=C(C)CC1CC(OC(=O)COc2ccccc2)=C(c2c(C)cc(C)cc2C)C1=O (stereo not drawn) [1-043]
P: Stellaria media, herbicidal effect grade (Stellaria media): 4 (Herbicidal ratio of 70% or higher and lower than 90%)
H (Echinochloa crus-galli var. crus-galli) herbicidal effect grade [1]: 5 (Herbicidal ratio of 90% or more (almost completely withered))
b: directly sowed rice plant, effect on crop grade (rice plant): 5 (Herbicidal ratio of 90% or more (almost completely withered))
f: beet, effect on crop grade (beet): 3 (Herbicidal ratio of 40% or higher and lower than 70%)
herbicidal effect on E, grade 0-5 (Cyperus difformis): 5 (Herbicidal ratio of 90% or more (almost completely withered))
L (Apera spica-venti) herbicidal effect grade (Apera spica-venti [2]): 5 (Herbicidal ratio of 90% or more (almost completely withered))
L: Apera spica-venti, herbicidal effect grade (Apera spica-venti [3]): 5 (Herbicidal ratio of 90% or more (almost completely withered))
herbicidal effect on H (Echinochloa crus-galli var. crus-galli), grade 0-5 [4]: 5 (Herbicidal ratio of 90% or more (almost completely withered))
Herbicidal effect grade, A: Echinochloa oryzacola Vasing. [5]: 5 (Herbicidal ratio of 90% or more (almost completely withered))
G: Setaria viridis, herbicidal effect grade (Setaria viridis): 5 (Herbicidal ratio of 90% or more (almost completely withered))
d: soybean, effect on crop grade (soybean): 4 (Herbicidal ratio of 70% or higher and lower than 90%)
Herbicidal effect grade, A: Echinochloa oryzacola Vasing. [6]: 5 (Herbicidal ratio of 90% or more (almost completely withered))
N (Amaranthus retroflexus) herbicidal effect grade (Amaranthus retroflexus): 4 (Herbicidal ratio of 70% or higher and lower than 90%)

CCCCCCCON=C(C)CC1CC(O)=C(c2c(C)cc(C)cc2C)C1=O (stereo not drawn) [1-054]
P: Stellaria media, herbicidal effect grade (Stellaria media): 0 (Herbicidal ratio of 5% or lower (almost no effect))
H (Echinochloa crus-galli var. crus-galli) herbicidal effect grade [1]: 4 (Herbicidal ratio of 70% or higher and lower than 90%)
b: directly sowed rice plant, effect on crop grade (rice plant): 4 (Herbicidal ratio of 70% or higher and lower than 90%)
f: beet, effect on crop grade (beet): 0 (Herbicidal ratio of 5% or lower (almost no effect))
herbicidal effect on E, grade 0-5 (Cyperus difformis): 0 (Herbicidal ratio of 5% or lower (almost no effect))
L (Apera spica-venti) herbicidal effect grade (Apera spica-venti [2]): 1 (Herbicidal ratio of 5% or higher and lower than 20%)
L: Apera spica-venti, herbicidal effect grade (Apera spica-venti [3]): 3 (Herbicidal ratio of 40% or higher and lower than 70%)
herbicidal effect on H (Echinochloa crus-galli var. crus-galli), grade 0-5 [4]: 5 (Herbicidal ratio of 90% or more (almost completely withered))
Herbicidal effect grade, A: Echinochloa oryzacola Vasing. [5]: 3 (Herbicidal ratio of 40% or higher and lower than 70%)
G: Setaria viridis, herbicidal effect grade (Setaria viridis): 3 (Herbicidal ratio of 40% or higher and lower than 70%)
d: soybean, effect on crop grade (soybean): 0 (Herbicidal ratio of 5% or lower (almost no effect))
Herbicidal effect grade, A: Echinochloa oryzacola Vasing. [6]: 5 (Herbicidal ratio of 90% or more (almost completely withered))
N (Amaranthus retroflexus) herbicidal effect grade (Amaranthus retroflexus): 0 (Herbicidal ratio of 5% or lower (almost no effect))

CON=C(C)CC1CC(OC(=O)COc2ccc(C(C)=O)cc2)=C(c2c(C)cc(C)cc2C)C1=O (stereo not drawn) [1-080]
P: Stellaria media, herbicidal effect (criteria 0-5) (Stellaria media): 0 (Herbicidal ratio of 5% or lower (almost no effect))
H: Echinochloa crus-galli var. crus-galli, herbicidal effect grade [1]: 5 (Herbicidal ratio of 90% or more (almost completely withered))
b: directly sowed rice plant, effect on crop (criteria 0-5) (rice plant): 5 (Herbicidal ratio of 90% or more (almost completely withered))
f: beet, effect on crop (criteria 0-5) (beet): 0 (Herbicidal ratio of 5% or lower (almost no effect))
herbicidal effect on E, grade 0-5 (Cyperus difformis): 5 (Herbicidal ratio of 90% or more (almost completely withered))
L: Apera spica-venti, herbicidal effect grade (Apera spica-venti [2]): 5 (Herbicidal ratio of 90% or more (almost completely withered))
L: Apera spica-venti, herbicidal effect (criteria 0-5) (Apera spica-venti [3]): 5 (Herbicidal ratio of 90% or more (almost completely withered))
herbicidal effect on H (Echinochloa crus-galli var. crus-galli), grade 0-5 [4]: 5 (Herbicidal ratio of 90% or more (almost completely withered))
Herbicidal effect grade, A: Echinochloa oryzacola Vasing. [5]: 4 (Herbicidal ratio of 70% or higher and lower than 90%)
G: Setaria viridis, herbicidal effect (criteria 0-5) (Setaria viridis): 5 (Herbicidal ratio of 90% or more (almost completely withered))
d: soybean, effect on crop (criteria 0-5) (soybean): 4 (Herbicidal ratio of 70% or higher and lower than 90%)
Herbicidal effect grade, A: Echinochloa oryzacola Vasing. [6]: 5 (Herbicidal ratio of 90% or more (almost completely withered))
N: Amaranthus retroflexus, herbicidal effect grade (Amaranthus retroflexus): 5 (Herbicidal ratio of 90% or more (almost completely withered))

CC(CC1CC(O)=C(c2c(C)cc(C)cc2C)C1=O)=NOC(C)(C)C (stereo not drawn) [1-053]
P: Stellaria media, herbicidal effect grade (Stellaria media): 0 (Herbicidal ratio of 5% or lower (almost no effect))
H (Echinochloa crus-galli var. crus-galli) herbicidal effect grade [1]: 5 (Herbicidal ratio of 90% or more (almost completely withered))
b: directly sowed rice plant, effect on crop grade (rice plant): 5 (Herbicidal ratio of 90% or more (almost completely withered))
f: beet, effect on crop grade (beet): 0 (Herbicidal ratio of 5% or lower (almost no effect))
herbicidal effect on E, grade 0-5 (Cyperus difformis): 4 (Herbicidal ratio of 70% or higher and lower than 90%)
L (Apera spica-venti) herbicidal effect grade (Apera spica-venti [2]): 3 (Herbicidal ratio of 40% or higher and lower than 70%)
L: Apera spica-venti, herbicidal effect grade (Apera spica-venti [3]): 3 (Herbicidal ratio of 40% or higher and lower than 70%)
herbicidal effect on H (Echinochloa crus-galli var. crus-galli), grade 0-5 [4]: 5 (Herbicidal ratio of 90% or more (almost completely withered))
Herbicidal effect grade, A: Echinochloa oryzacola Vasing. [5]: 4 (Herbicidal ratio of 70% or higher and lower than 90%)
G: Setaria viridis, herbicidal effect grade (Setaria viridis): 3 (Herbicidal ratio of 40% or higher and lower than 70%)
d: soybean, effect on crop grade (soybean): 3 (Herbicidal ratio of 40% or higher and lower than 70%)
Herbicidal effect grade, A: Echinochloa oryzacola Vasing. [6]: 5 (Herbicidal ratio of 90% or more (almost completely withered))
N (Amaranthus retroflexus) herbicidal effect grade (Amaranthus retroflexus): 0 (Herbicidal ratio of 5% or lower (almost no effect))
